Read-outs that look alike come from different tables or passages of the source.
Tests used:
JAK1 = target: T1, JAK1 (Homo sapiens, UniProt P23458); test: JAK biochemical microfluidic assay (Caliper EZ Reader), JAK1; settings: 1 mM ATP; head prints (5 nM)
T1 construct: purchased Carna Biosciences
Procedure: (§1) JAK activity was determined in the reaction buffer 50 mM HEPES, 0.01% Brij35, 10 mM MgCl2, 2 mM DTT by a microfluidic assay. The phosphorylation of a FAM labeled peptide substrate was monitored in the Caliper EZ Reader II (Perkin Elmer). The assay condition for each batch of enzyme (Carna Biosciences) was optimized to obtain 10% conversion rate of peptide substrate.
(§2) The test compounds were dissolved in DMSO to a stock concentration of 10 mM. Three-fold serially diluted compounds with top concentration of 5 μM were pre-incubated with JAK1, JAK2 or TYK2 for 10 min at ambient temperature. The final DMSO concentration of assay mixture was 1%. […] The reaction was stopped by adding 50 mM EDTA.
(§3) The percent inhibition was calculated by the following formula. % Inhibition=(Conversionmax−Conversionsample)/(Conversionmax−Conversionmin)*100 Conversionmax means the conversion rate in the positive well without addition of compound • […] means the conversion rate in the well without addition of enzyme • Conversionsample means the conversion rate of test compounds
(§4) The dose-response (percent inhibition) curve was plotted and IC50 values were determined by GraphPad software.

JAK2 = target: T2, JAK2 (Homo sapiens, UniProt O60674); test: JAK biochemical microfluidic assay (Caliper EZ Reader), JAK2; settings: 1 mM ATP; head prints (0.25 nM)
T2 construct: purchased Carna Biosciences
T2 sequence (O60674 whole entry): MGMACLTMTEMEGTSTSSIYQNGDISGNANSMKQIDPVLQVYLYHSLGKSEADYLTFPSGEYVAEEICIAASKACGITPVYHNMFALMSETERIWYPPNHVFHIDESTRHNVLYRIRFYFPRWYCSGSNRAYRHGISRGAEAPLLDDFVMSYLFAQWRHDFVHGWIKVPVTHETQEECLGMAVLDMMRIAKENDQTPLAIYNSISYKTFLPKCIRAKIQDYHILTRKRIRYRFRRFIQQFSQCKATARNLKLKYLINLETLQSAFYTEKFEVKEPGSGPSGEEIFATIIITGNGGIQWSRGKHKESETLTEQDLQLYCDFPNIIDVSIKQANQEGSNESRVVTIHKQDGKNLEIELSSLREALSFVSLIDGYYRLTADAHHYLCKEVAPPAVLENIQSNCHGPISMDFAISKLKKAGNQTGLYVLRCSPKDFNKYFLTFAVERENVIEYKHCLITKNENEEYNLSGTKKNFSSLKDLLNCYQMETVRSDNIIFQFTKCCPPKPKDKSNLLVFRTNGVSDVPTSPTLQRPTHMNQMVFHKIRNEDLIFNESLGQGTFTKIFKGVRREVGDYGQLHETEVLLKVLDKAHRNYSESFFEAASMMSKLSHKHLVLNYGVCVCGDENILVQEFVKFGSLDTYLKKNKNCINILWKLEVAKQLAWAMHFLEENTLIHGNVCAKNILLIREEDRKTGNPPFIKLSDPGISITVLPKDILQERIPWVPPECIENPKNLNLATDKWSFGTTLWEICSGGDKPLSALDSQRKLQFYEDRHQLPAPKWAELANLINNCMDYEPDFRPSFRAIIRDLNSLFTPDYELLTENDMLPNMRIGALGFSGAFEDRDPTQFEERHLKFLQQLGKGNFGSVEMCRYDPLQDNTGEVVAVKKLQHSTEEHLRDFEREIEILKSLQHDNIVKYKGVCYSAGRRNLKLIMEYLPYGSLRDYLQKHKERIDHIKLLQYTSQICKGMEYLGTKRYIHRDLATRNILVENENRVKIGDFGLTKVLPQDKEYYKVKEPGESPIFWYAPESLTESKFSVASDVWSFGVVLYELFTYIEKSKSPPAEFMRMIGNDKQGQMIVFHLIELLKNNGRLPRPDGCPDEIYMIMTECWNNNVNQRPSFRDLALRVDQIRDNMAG
Procedure: as §1, §2, §3, §4

[1] = Human liver microsome stability study; type: in vitro ADME; settings: liver microsomes, pH 7.4, 0.5 mg/mL microsomal protein, 1 μM test article; for microsomal CLint at 1 μM: read-out: HLM Clint; for half-life at 1 μM: read-out: HLM T½
Procedure: Commercially available human liver microsome (vendor: Corning) were used for study the Phase I stability of test articles.
Microsomes were pre-incubated with test compound or control compounds for 10 min at 37° C. in 100 mM potassium phosphate buffer, pH 7.4, 3.3 mM MgCl2. The reaction was initiated by addition of 80 μL of the NADPH regenerating system to 320 μL of each incubation mixture per time point. The final incubation condition was composed of 0.5 mg/mL microsomal protein, 1 μM test article/positive control, 1.3 mM NADP, 3.3 mM glucose-6-phosphate, and 0.6 U/mL glucose-6-phosphate dehydrogenase. The 0-minute samples were prepared by addition of an 80 μL aliquot of each incubation mixture to 400 μL quench reagent to precipitate proteins. And then a 20 μL aliquot of the NADPH regenerating system was added. At 10, 30, and 90 minutes, the reaction will be stopped by the addition of cold acetonitrile solution containing tolbutamide and propanolol served as internal standard. The samples taken at all time points were centrifuged at 4000×g for 15 minutes. 80 μL of supernatant are taken into 96-well assay plates pre-added with 160 μL ultrapure water, and then analyzed by LC/MS/MS (Shimadzu LC30AD & API4000/API5000)).
Concentrations of test articles, control compounds in the samples were determined by using LC/MS/MS) method. Plotting of the chromatograms and peak area integrations are carried out by Analyst (AB Sciex).
In the determination of the in vitro elimination constant, ke, of the control compounds, the analyte/internal standard peak area ratios will be converted to percentage remaining (% Remaining) with the following equation:
The CLint of microsomes was calculated using the formula: CLint (mic)=0.693/T1/2/mg microsome protein per mL.

TYK2 = target: T3, TYK2 (Homo sapiens, UniProt P29597); test: JAK biochemical microfluidic assay (Caliper EZ Reader), TYK2; settings: 1 mM ATP; head prints (2.5 nM)
T3 construct: purchased Carna Biosciences
T3 sequence (P29597 whole entry): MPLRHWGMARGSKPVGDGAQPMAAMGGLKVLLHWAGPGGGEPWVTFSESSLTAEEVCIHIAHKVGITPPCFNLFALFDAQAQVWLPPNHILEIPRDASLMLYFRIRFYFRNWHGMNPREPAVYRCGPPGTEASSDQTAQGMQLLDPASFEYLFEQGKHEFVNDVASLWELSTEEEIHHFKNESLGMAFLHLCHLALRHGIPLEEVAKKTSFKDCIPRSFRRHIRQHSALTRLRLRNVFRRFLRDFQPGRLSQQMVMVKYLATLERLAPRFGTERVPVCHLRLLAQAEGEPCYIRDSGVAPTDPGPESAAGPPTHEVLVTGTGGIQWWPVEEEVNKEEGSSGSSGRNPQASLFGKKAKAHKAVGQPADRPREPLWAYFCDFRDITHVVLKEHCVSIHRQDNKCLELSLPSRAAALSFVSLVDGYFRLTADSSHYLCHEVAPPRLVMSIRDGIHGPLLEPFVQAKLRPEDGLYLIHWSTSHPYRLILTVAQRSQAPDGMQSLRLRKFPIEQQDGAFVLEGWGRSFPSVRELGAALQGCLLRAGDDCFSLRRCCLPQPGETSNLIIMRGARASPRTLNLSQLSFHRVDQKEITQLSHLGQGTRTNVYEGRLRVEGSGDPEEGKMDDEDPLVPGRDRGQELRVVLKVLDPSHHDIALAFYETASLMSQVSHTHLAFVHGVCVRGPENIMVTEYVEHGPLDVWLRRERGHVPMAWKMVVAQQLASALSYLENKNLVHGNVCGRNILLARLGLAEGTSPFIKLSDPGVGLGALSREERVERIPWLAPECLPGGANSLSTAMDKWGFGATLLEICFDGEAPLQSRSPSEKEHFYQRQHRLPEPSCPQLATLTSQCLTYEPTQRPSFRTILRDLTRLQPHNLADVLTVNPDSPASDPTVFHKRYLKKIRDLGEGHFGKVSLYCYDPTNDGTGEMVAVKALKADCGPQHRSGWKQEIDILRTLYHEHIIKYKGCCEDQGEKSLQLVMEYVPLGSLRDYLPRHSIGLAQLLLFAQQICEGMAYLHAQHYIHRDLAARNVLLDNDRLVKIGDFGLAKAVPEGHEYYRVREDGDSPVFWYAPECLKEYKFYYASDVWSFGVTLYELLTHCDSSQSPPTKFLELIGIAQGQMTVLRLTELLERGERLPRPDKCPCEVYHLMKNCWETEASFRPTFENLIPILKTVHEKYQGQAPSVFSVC
Procedure: as §1, §2, §3, §4

BaF3-TEL-JAK2 = test: Anti-proliferative assay, BaF3-TEL-JAK2 cells; type: cell-based; settings: 72 h, Cell-Titer Glo
Procedure: (§5) Dimerization domain of Tel protein fused with JAK kinase domain was permanently transduced into BaF3 cells, whose proliferation is dependent on JAK activity in the absence of IL-3 induction. These engineered BaF3-Tel-JAK cells were used to monitor JAK inhibitory activities of the compounds in the cellular.
(§6) BaF3-Tel-JAK cells were cultured in RPMI-1640 (Corning) containing 10% fetal bovine serum. Cells were seeded at 2000/well of white flat bottom 96-well plates. The well containing medium only was used as background control. After 24h growth, cells were treated with compounds. The test compounds were dissolved in DMSO to a stock concentration of 10 mM. 3-fold serially diluted compounds for 9 concentrations with top concentration of 10 μM was added into the each well. The final DMSO concentration was 0.2%. The cells continued to grow at 37° C. in 5% CO2 for 72 h after compound treatment. The viability was measured by cellular ATP determination using the Cell-Titer Glo luciferase reagent (Promega). The Luminescence value was recorded by a multi-label reader Envision (PerkinElmer). Values were transformed to percent inhibition using the following formula. % Inhibition=(Readoutmax−Readoutsample)/(Readoutmax−Readoutmin)*100
(§7) The well without compound but with equivalent DMSO was defined as Readout max
(§8) The well with only medium and equivalent DMSO was defined as Readout min
(§9) The dose-response (percent inhibition) curve was plotted and GI50 values (the concentration that causes 50% growth inhibition) were determined by GraphPad software.

BaF3-TEL-JAK1 = test: Anti-proliferative assay, BaF3-TEL-JAK1 cells; type: cell-based; settings: 72 h, Cell-Titer Glo
Procedure: as §5, §6, §7, §8, §9

[2] = Rat pharmacokinetic study; type: in vivo, Sprague-Dawley rats; settings: for half-life: read-out: t½ (converted); for Pharmacokinetic profile in rats: conclusion in words
Procedure: Pharmacokinetic profile of test articles were evaluated in fasted Sprague-Dawley rats. Typically, Rats were dosed with 1 mg/kg and 2 mg/kg by intravenous injection and oral gavage, respectively. After dosing, blood samples were collected at each time point. For IV injection group, time points were set at 5, 15, 30 min, and then 1, 2, 4, 8 and 24 hours after dosing. For oral gavage group, time points were set at 15, 30 min, and then 1, 2, 4, 8, and 24 hours. Blood was collected into appropriately labeled tubes containing K2EDTA as the anticoagulant. Plasma was obtained within 1 hours of blood collection by centrifugation at 8000×g and 4° C. for 6 minutes, and then stored at −20° C. until analyzed by LC/MS/MS for quantification.
PK parameter values, including, but not necessarily limited to, the maximum plasma concentrations (Cmax), the time to reach the maximum concentrations (Tmax), and the area under the plasma concentration vs. time curve (AUC) from time zero to 24-hour (AUC0-24h) were determined using WinNonlin program.

[3] = Sprague-Dawley, plasma, 1 mg/kg, Rat iv @1 mpk, 0.2 mg/mL in 4% DMSO + 15% Solutol HS 15 + 81% Saline
[4] = Sprague-Dawley, plasma, 1 mg/kg, Rat iv @1 mpk, 0.2 mg/mL in 5% DMSO + 15% Solutol HS 15 + 80% Saline
[5] = Sprague-Dawley, plasma, 2 mg/kg, Rat po @2 mpk, 0.2 mg/mL in 5% DMSO + 15% Solutol HS 15 + 80% Saline

T1 sequence (P23458 whole entry): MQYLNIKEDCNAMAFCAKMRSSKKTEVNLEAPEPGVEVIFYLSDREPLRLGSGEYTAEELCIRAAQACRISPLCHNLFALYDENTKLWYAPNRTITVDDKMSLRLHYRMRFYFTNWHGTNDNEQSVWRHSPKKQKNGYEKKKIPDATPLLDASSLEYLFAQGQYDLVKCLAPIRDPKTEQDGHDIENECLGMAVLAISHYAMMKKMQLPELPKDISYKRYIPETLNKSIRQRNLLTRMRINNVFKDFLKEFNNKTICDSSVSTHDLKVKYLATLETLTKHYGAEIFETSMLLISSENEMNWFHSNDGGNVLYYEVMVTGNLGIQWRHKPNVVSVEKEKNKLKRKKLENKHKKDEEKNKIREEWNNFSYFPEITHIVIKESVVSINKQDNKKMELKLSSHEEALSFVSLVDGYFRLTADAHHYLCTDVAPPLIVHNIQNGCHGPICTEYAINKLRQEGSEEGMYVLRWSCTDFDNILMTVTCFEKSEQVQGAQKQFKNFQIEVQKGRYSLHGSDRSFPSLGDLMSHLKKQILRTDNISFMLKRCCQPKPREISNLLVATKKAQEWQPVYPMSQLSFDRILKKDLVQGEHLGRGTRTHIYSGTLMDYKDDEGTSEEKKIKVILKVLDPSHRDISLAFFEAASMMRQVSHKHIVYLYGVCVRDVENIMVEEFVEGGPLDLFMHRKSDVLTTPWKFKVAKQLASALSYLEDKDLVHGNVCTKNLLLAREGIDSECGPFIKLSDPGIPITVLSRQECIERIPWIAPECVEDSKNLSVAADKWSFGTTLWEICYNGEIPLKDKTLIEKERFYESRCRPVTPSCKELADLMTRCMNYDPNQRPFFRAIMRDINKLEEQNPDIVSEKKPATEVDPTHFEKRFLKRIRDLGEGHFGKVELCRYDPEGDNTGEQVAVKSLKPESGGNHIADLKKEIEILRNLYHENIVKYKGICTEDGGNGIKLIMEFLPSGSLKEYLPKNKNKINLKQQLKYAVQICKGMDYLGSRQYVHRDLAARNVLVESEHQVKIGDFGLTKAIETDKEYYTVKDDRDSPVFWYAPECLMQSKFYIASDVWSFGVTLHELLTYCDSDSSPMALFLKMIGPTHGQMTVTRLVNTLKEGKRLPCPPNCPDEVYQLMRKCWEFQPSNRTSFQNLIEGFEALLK

Compound | IC50 (JAK1) [µM] | IC50 (JAK2) [µM] | microsomal CLint at 1 μM [1] [µL/min/mg] | half-life at 1 μM [1] [h] | IC50 (TYK2) [µM] | GI50 (BaF3-TEL-JAK2) [µM] | GI50 (BaF3-TEL-JAK1) [µM] | AUC [2, 3] [µg·h/mL] | Vd [2, 3] [L/kg] | clearance [2, 3] [L/h/kg] | half-life [2, 3] [h] | Pharmacokinetic profile in rats [2] | F ([2]; Rat po @2 mpk, 0.2 mg/mL in 5% DMSO + 15% Solutol HS 15 + 80% Saline) [%] | AUC [2, 4] [µg·h/mL] | Vd [2, 4] [L/kg] | clearance [2, 4] [L/h/kg] | half-life [2, 4] [h] | AUC [2, 5] [µg·h/mL] | Cmax [2, 5] [µg/mL] | half-life [2, 5] [h]
O=C(CC1CC1)NC12CC(n3cnc4cnc5[nH]ccc5c43)(C1)C2 [Example 13, 2-Cyclopropyl-N-(3-(imidazo[4,5-d]pyrrolo[2,3-b]pyridin-1(6H)-yl)bicyclo[1.1.1]pentan-1-yl)acetamide] | 0.0148 | 0.122 | 1.01 | 23 | 0.4 | 0.107 | 0.0501 | – | – | – | – | – | – | – | – | – | – | – | – | –
N#CC1CN(S(=O)(=O)NC23CC(n4cnc5cnc6[nH]ccc6c54)(C2)C3)C1 [Example 4, 3-Cyano-N-(3-(imidazo[4,5-d]pyrrolo[2,3-b]pyridin-1(6H)-yl)bicyclo[1.1.1]pentan-1-yl)azetidine-1-sulfonamide] | 0.0032 | 0.0832 | 2.11 | 10.9 | 0.111 | – | – | 0.402 | 0.93 | 2.51 | 0.26 | good Pharmacokinetic profile | – | – | – | – | – | – | – | –
CCCCS(=O)(=O)NC12CC(n3cnc4cnc5[nH]ccc5c43)(C1)C2 [Example 31, N-(3-(imidazo[4,5-d]pyrrolo[2,3-b]pyridin-1(6H)-yl)bicyclo[1.1.1]pentan-1-yl)butane-1-sulfonamide] | 0.0048 | 0.129 | – | – | 0.17 | 0.198 | 0.0278 | – | – | – | – | – | – | – | – | – | – | – | – | –
CCCS(=O)(=O)NC12CC(n3cnc4cnc5[nH]ccc5c43)(C1)C2 [Example 1, N-(3-(Imidazo[4,5-d]pyrrolo[2,3-b]pyridin-1(6H)-yl)bicyclo[1.1.1]pentan-1-yl)propane-1-sulfonamide] | 0.00595 | 0.141 | 4.1 | 5.69 | 0.119 | 0.354 | 0.0196 | – | – | – | – | good Pharmacokinetic profile | 21.90 | 0.458 | 1.42 | 2.17 | 0.46 | 0.19 | 0.0928 | 2.06
O=S(=O)(CCC(F)(F)F)NC12CC(n3cnc4cnc5[nH]ccc5c43)(C1)C2 [Example 32, 3,3,3-Trifluoro-N-(3-(imidazo[4,5-d]pyrrolo[2,3-b]pyridin-1(6H)-yl)bicyclo[1.1.1]pentan-1-yl)propane-1-sulfonamide] | 0.0067 | 0.155 | 2.72 | 8.5 | 0.151 | 0.122 | 0.0336 | – | – | – | – | – | – | – | – | – | – | – | – | –

Next, values leading:

IC50 (JAK1) [µM] | IC50 (JAK2) [µM] | microsomal CLint at 1 μM [1] [µL/min/mg] | half-life at 1 μM [1] [h] | IC50 (TYK2) [µM] | GI50 (BaF3-TEL-JAK2) [µM] | GI50 (BaF3-TEL-JAK1) [µM] | AUC [2, 3] [µg·h/mL] | Vd [2, 3] [L/kg] | clearance [2, 3] [L/h/kg] | half-life [2, 3] [h] | Pharmacokinetic profile in rats [2] | F ([2]; Rat po @2 mpk, 0.2 mg/mL in 5% DMSO + 15% Solutol HS 15 + 80% Saline) [%] | AUC [2, 4] [µg·h/mL] | Vd [2, 4] [L/kg] | clearance [2, 4] [L/h/kg] | half-life [2, 4] [h] | AUC [2, 5] [µg·h/mL] | Cmax [2, 5] [µg/mL] | half-life [2, 5] [h] | Compound
0.00806 | 0.0731 | 0.77 | 29.8 | – | – | – | – | – | – | – | – | – | – | – | – | – | – | – | – | N#CCCC(=O)NC12CC(n3cnc4cnc5[nH]ccc5c43)(C1)C2 [Example 14, 3-Cyano-N-(3-(imidazo[4,5-d]pyrrolo[2,3-b]pyridin-1(6H)-yl)bicyclo[1.1.1]pentan-1-yl)propanamide]
0.0084 | 0.0895 | 1.04 | 22.3 | – | 0.0867 | 0.0482 | – | – | – | – | – | – | – | – | – | – | – | – | – | O=C(NC12CC(n3cnc4cnc5[nH]ccc5c43)(C1)C2)C1CC(F)(F)C1 [Example 17, 3,3-Difluoro-N-(3-(imidazo[4,5-d]pyrrolo[2,3-b]pyridin-1(6H)-yl)bicyclo[1.1.1]pentan-1-yl)cyclobutanecarboxamide]
0.0034 | 0.0508 | – | – | 0.0335 | 0.148 | 0.0416 | – | – | – | – | – | – | – | – | – | – | – | – | – | O=S(=O)(NC12CC(n3cnc4cnc5[nH]ccc5c43)(C1)C2)N1CC(F)(F)C1 [Example 23, 3,3-difluoro-N-(3-(imidazo[4,5-d]pyrrolo[2,3-b]pyridin-1(6H)-yl)bicyclo[1.1.1]pentan-1-yl)azetidine-1-sulfonamide]
0.0061 | 0.0455 | 1.24 | 18.6 | 0.0284 | 0.163 | 0.054 | – | – | – | – | – | – | – | – | – | – | – | – | – | O=S(=O)(NC12CC(n3cnc4cnc5[nH]ccc5c43)(C1)C2)N1CC(F)C1 [Example 22, 3-Fluoro-N-(3-(imidazo[4,5-d]pyrrolo[2,3-b]pyridin-1(6H)-yl)bicyclo[1.1.1]pentan-1-yl)azetidine-1-sulfonamide]

Source: US11851431B2, “Tricyclic Janus kinase 1 inhibitors, and compositions and methods thereof” (LYNK PHARMACEUTICALS CO. LTD., priority 2018, dated 2023)
